Test results: the supplement of paper PMC4862054
Values joined by “and” are separate entries in the source; they are usually repeats but may differ in a detail not shown here. Identical values can stand only once.

test system: CAL-85-1; experiment: normalised viability (% of control), CellTiter-Blue; higher = more viable cells (about 100 = DMSO control); details: 30 nM; incubation time: 72 h
In short: (§1)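 Compound dissolved in 5 µl medium was pre-loaded into 384-well plates, and breast cancer cell lines in 20 µl suspension were seeded on top and incubated 72 h. After adding 2.5 µl CellTiter-Blue reagent for 2 h at 37 °C, fluorescence was read at 560/590 nm. Plates were normalised to vehicle (100) and a positive kill control (0), with Z'-factor quality control. Each value is normalised viability at a single listed concentration from the series.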

Row | Structure (SMILES) | normalised viability
1 | Cc1ccc(Nc2nccc(N(C)c3ccc4c(C)n(C)nc4c3)n2)cc1S(N)(=O)=O [Pazopanib] | 77.8%
2 | O=C(CCBr)N1CCN(C(=O)CCBr)CC1 [Pipobroman] | 98.6%
3 | C[C@]12C=CC(=O)C=C1CC[C@@H]1[C@@H]2[C@@H](O)C[C@@]2(C)[C@H]1CC[C@]2(O)C(=O)CO [Prednisolone] | 105%

same assay, conditions: 100 nM; incubation time: 72 h

Row | Structure (SMILES) | normalised viability
4 | Nc1ccccc1NC(=O)c1ccc(CNc2nccc(-c3cccnc3)n2)cc1 [Mocetinostat] | 86.9%
5 | COc1nc(N)nc2c1ncn2[C@@H]1O[C@H](CO)[C@@H](O)[C@@H]1O [Nelarabine] | 101% and 102%
6 | Cc1ccc(Nc2nccc(N(C)c3ccc4c(C)n(C)nc4c3)n2)cc1S(N)(=O)=O [Pazopanib] | 95.3%
7 | O=C(CCBr)N1CCN(C(=O)CCBr)CC1 [Pipobroman] | 100%
8 | C[C@]12C=CC(=O)C=C1CC[C@@H]1[C@@H]2[C@@H](O)C[C@@]2(C)[C@H]1CC[C@]2(O)C(=O)CO [Prednisolone] | 119%

test system: DU-4475; experiment: as above; details: 0.3 nM; incubation time: 72 h
In short: as §1

Row | Structure (SMILES) | normalised viability
9 | O=C1c2c(O)ccc(O)c2C(=O)c2c(NCCNCCO)ccc(NCCNCCO)c21 [Mitoxantrone] | 89%
10 | CNC(=O)c1cc(Oc2ccc(NC(=O)Nc3ccc(Cl)c(C(F)(F)F)c3)cc2)ccn1 [Sorafenib] | 94.3% and 109%
11 | CCN(CC)CCNC(=O)c1c(C)[nH]c(/C=C2\C(=O)Nc3ccc(F)cc32)c1C [Sunitinib] | 99.7% and 88.2%
12 | CC[C@@]1(O)C(=O)OCc2c1cc1n(c2=O)Cc2cc3c(CN(C)C)c(O)ccc3nc2-1 [Topotecan] | 88.4%

same assay, conditions: 0.75 nM; incubation time: 72 h

Row | Structure (SMILES) | normalised viability
13 | c1cc(CN2CCCNCCNCCCNCC2)ccc1CN1CCCNCCNCCCNCC1 [Plerixafor] | 91.4%

same assay, conditions: 3 nM; incubation time: 72 h

Row | Structure (SMILES) | normalised viability
14 | O=C1c2c(O)ccc(O)c2C(=O)c2c(NCCNCCO)ccc(NCCNCCO)c21 [Mitoxantrone] | 91.3%
15 | Nc1ccccc1NC(=O)c1ccc(CNc2nccc(-c3cccnc3)n2)cc1 [Mocetinostat] | 97.2%
16 | COc1nc(N)nc2c1ncn2[C@@H]1O[C@H](CO)[C@@H](O)[C@@H]1O [Nelarabine] | 117% and 116%
17 | Cc1ccc(Nc2nccc(N(C)c3ccc4c(C)n(C)nc4c3)n2)cc1S(N)(=O)=O [Pazopanib] | 97%
18 | O=C(CCBr)N1CCN(C(=O)CCBr)CC1 [Pipobroman] | 111%
19 | C[C@]12C=CC(=O)C=C1CC[C@@H]1[C@@H]2[C@@H](O)C[C@@]2(C)[C@H]1CC[C@]2(O)C(=O)CO [Prednisolone] | 107%
20 | CNC(=O)c1cc(Oc2ccc(NC(=O)Nc3ccc(Cl)c(C(F)(F)F)c3)cc2)ccn1 [Sorafenib] | 101% and 95.7%
21 | CCN(CC)CCNC(=O)c1c(C)[nH]c(/C=C2\C(=O)Nc3ccc(F)cc32)c1C [Sunitinib] | 92.5% and 88.1%
22 | CC[C@@]1(O)C(=O)OCc2c1cc1n(c2=O)Cc2cc3c(CN(C)C)c(O)ccc3nc2-1 [Topotecan] | 88.4%

same assay, conditions: 7.5 nM; incubation time: 72 h

Row | Structure (SMILES) | normalised viability
23 | c1cc(CN2CCCNCCNCCCNCC2)ccc1CN1CCCNCCNCCCNCC1 [Plerixafor] | 97.3%

same assay, conditions: 10 nM; incubation time: 72 h

Row | Structure (SMILES) | normalised viability
24 | O=C1c2c(O)ccc(O)c2C(=O)c2c(NCCNCCO)ccc(NCCNCCO)c21 [Mitoxantrone] | 45.8%
25 | CCN(CC)CCNC(=O)c1c(C)[nH]c(/C=C2\C(=O)Nc3ccc(F)cc32)c1C [Sunitinib] | 108% and 95.7%
26 | CC[C@@]1(O)C(=O)OCc2c1cc1n(c2=O)Cc2cc3c(CN(C)C)c(O)ccc3nc2-1 [Topotecan] | 78.5%

same assay, conditions: 25 nM; incubation time: 72 h

Row | Structure (SMILES) | normalised viability
27 | c1cc(CN2CCCNCCNCCCNCC2)ccc1CN1CCCNCCNCCCNCC1 [Plerixafor] | 97.9%

same assay, conditions: 30 nM; incubation time: 72 h

Row | Structure (SMILES) | normalised viability
28 | Nc1ccccc1NC(=O)c1ccc(CNc2nccc(-c3cccnc3)n2)cc1 [Mocetinostat] | 98.5%
29 | COc1nc(N)nc2c1ncn2[C@@H]1O[C@H](CO)[C@@H](O)[C@@H]1O [Nelarabine] | 97% and 101%
30 | Cc1ccc(Nc2nccc(N(C)c3ccc4c(C)n(C)nc4c3)n2)cc1S(N)(=O)=O [Pazopanib] | 100%
31 | O=C(CCBr)N1CCN(C(=O)CCBr)CC1 [Pipobroman] | 105%
32 | C[C@]12C=CC(=O)C=C1CC[C@@H]1[C@@H]2[C@@H](O)C[C@@]2(C)[C@H]1CC[C@]2(O)C(=O)CO [Prednisolone] | 116%

same assay, conditions: 100 nM; incubation time: 72 h

Row | Structure (SMILES) | normalised viability
33 | Nc1ccccc1NC(=O)c1ccc(CNc2nccc(-c3cccnc3)n2)cc1 [Mocetinostat] | 103%
34 | COc1nc(N)nc2c1ncn2[C@@H]1O[C@H](CO)[C@@H](O)[C@@H]1O [Nelarabine] | 106% and 126%
35 | Cc1ccc(Nc2nccc(N(C)c3ccc4c(C)n(C)nc4c3)n2)cc1S(N)(=O)=O [Pazopanib] | 104%
36 | O=C(CCBr)N1CCN(C(=O)CCBr)CC1 [Pipobroman] | 108%
37 | C[C@]12C=CC(=O)C=C1CC[C@@H]1[C@@H]2[C@@H](O)C[C@@]2(C)[C@H]1CC[C@]2(O)C(=O)CO [Prednisolone] | 98.1%

test system: HCC1143; experiment: as above; details: 1 nM; incubation time: 72 h
In short: as §1

Row | Structure (SMILES) | normalised viability
38 | O=C1c2c(O)ccc(O)c2C(=O)c2c(NCCNCCO)ccc(NCCNCCO)c21 [Mitoxantrone] | 83.4%
39 | CNC(=O)c1cc(Oc2ccc(NC(=O)Nc3ccc(Cl)c(C(F)(F)F)c3)cc2)ccn1 [Sorafenib] | 99% and 84.3%
40 | CC[C@@]1(O)C(=O)OCc2c1cc1n(c2=O)Cc2cc3c(CN(C)C)c(O)ccc3nc2-1 [Topotecan] | 79.9%

same assay, conditions: 2.5 nM; incubation time: 72 h

Row | Structure (SMILES) | normalised viability
41 | c1cc(CN2CCCNCCNCCCNCC2)ccc1CN1CCCNCCNCCCNCC1 [Plerixafor] | 81%

same assay, conditions: 10 nM; incubation time: 72 h

Row | Structure (SMILES) | normalised viability
42 | Nc1ccccc1NC(=O)c1ccc(CNc2nccc(-c3cccnc3)n2)cc1 [Mocetinostat] | 78.5%
43 | Cc1ccc(Nc2nccc(N(C)c3ccc4c(C)n(C)nc4c3)n2)cc1S(N)(=O)=O [Pazopanib] | 76.5%
44 | O=C(CCBr)N1CCN(C(=O)CCBr)CC1 [Pipobroman] | 82%
45 | C[C@]12C=CC(=O)C=C1CC[C@@H]1[C@@H]2[C@@H](O)C[C@@]2(C)[C@H]1CC[C@]2(O)C(=O)CO [Prednisolone] | 98%

same assay, conditions: 100 nM; incubation time: 72 h

Row | Structure (SMILES) | normalised viability
46 | O=C1c2c(O)ccc(O)c2C(=O)c2c(NCCNCCO)ccc(NCCNCCO)c21 [Mitoxantrone] | 56.6%
47 | CNC(=O)c1cc(Oc2ccc(NC(=O)Nc3ccc(Cl)c(C(F)(F)F)c3)cc2)ccn1 [Sorafenib] | 105% and 85.9%
48 | CCN(CC)CCNC(=O)c1c(C)[nH]c(/C=C2\C(=O)Nc3ccc(F)cc32)c1C [Sunitinib] | 84.3% and 106%
49 | CC[C@@]1(O)C(=O)OCc2c1cc1n(c2=O)Cc2cc3c(CN(C)C)c(O)ccc3nc2-1 [Topotecan] | 79.1%

same assay, conditions: 250 nM; incubation time: 72 h

Row | Structure (SMILES) | normalised viability
50 | c1cc(CN2CCCNCCNCCCNCC2)ccc1CN1CCCNCCNCCCNCC1 [Plerixafor] | 87.4%

same assay, conditions: 1000 nM; incubation time: 72 h

Row | Structure (SMILES) | normalised viability
51 | O=C1c2c(O)ccc(O)c2C(=O)c2c(NCCNCCO)ccc(NCCNCCO)c21 [Mitoxantrone] | 31.2%
52 | Nc1ccccc1NC(=O)c1ccc(CNc2nccc(-c3cccnc3)n2)cc1 [Mocetinostat] | 67%
53 | COc1nc(N)nc2c1ncn2[C@@H]1O[C@H](CO)[C@@H](O)[C@@H]1O [Nelarabine] | 103% and 88.2%
54 | Cc1ccc(Nc2nccc(N(C)c3ccc4c(C)n(C)nc4c3)n2)cc1S(N)(=O)=O [Pazopanib] | 101%
55 | O=C(CCBr)N1CCN(C(=O)CCBr)CC1 [Pipobroman] | 86.2%
56 | C[C@]12C=CC(=O)C=C1CC[C@@H]1[C@@H]2[C@@H](O)C[C@@]2(C)[C@H]1CC[C@]2(O)C(=O)CO [Prednisolone] | 87.9%
57 | CNC(=O)c1cc(Oc2ccc(NC(=O)Nc3ccc(Cl)c(C(F)(F)F)c3)cc2)ccn1 [Sorafenib] | 96.1% and 91.6%
58 | CC[C@@]1(O)C(=O)OCc2c1cc1n(c2=O)Cc2cc3c(CN(C)C)c(O)ccc3nc2-1 [Topotecan] | 41.9%

same assay, conditions: 2500 nM; incubation time: 72 h

Row | Structure (SMILES) | normalised viability
59 | c1cc(CN2CCCNCCNCCCNCC2)ccc1CN1CCCNCCNCCCNCC1 [Plerixafor] | 83.2%

same assay, conditions: 10000 nM; incubation time: 72 h

Row | Structure (SMILES) | normalised viability
60 | Nc1ccccc1NC(=O)c1ccc(CNc2nccc(-c3cccnc3)n2)cc1 [Mocetinostat] | 16.7%
61 | COc1nc(N)nc2c1ncn2[C@@H]1O[C@H](CO)[C@@H](O)[C@@H]1O [Nelarabine] | 105% and 89.6%
62 | Cc1ccc(Nc2nccc(N(C)c3ccc4c(C)n(C)nc4c3)n2)cc1S(N)(=O)=O [Pazopanib] | 60.7%
63 | O=C(CCBr)N1CCN(C(=O)CCBr)CC1 [Pipobroman] | 88.2%
64 | C[C@]12C=CC(=O)C=C1CC[C@@H]1[C@@H]2[C@@H](O)C[C@@]2(C)[C@H]1CC[C@]2(O)C(=O)CO [Prednisolone] | 96.3%

test system: HCC1599; experiment: as above; details: 1 nM; incubation time: 72 h
In short: as §1

Row | Structure (SMILES) | normalised viability
65 | O=C1c2c(O)ccc(O)c2C(=O)c2c(NCCNCCO)ccc(NCCNCCO)c21 [Mitoxantrone] | 97.6%
66 | CCN(CC)CCNC(=O)c1c(C)[nH]c(/C=C2\C(=O)Nc3ccc(F)cc32)c1C [Sunitinib] | 113% and 97.3%
67 | CC[C@@]1(O)C(=O)OCc2c1cc1n(c2=O)Cc2cc3c(CN(C)C)c(O)ccc3nc2-1 [Topotecan] | 91.5%

same assay, conditions: 2.5 nM; incubation time: 72 h

Row | Structure (SMILES) | normalised viability
68 | c1cc(CN2CCCNCCNCCCNCC2)ccc1CN1CCCNCCNCCCNCC1 [Plerixafor] | 107%

same assay, conditions: 10 nM; incubation time: 72 h

Row | Structure (SMILES) | normalised viability
69 | Nc1ccccc1NC(=O)c1ccc(CNc2nccc(-c3cccnc3)n2)cc1 [Mocetinostat] | 102%
70 | COc1nc(N)nc2c1ncn2[C@@H]1O[C@H](CO)[C@@H](O)[C@@H]1O [Nelarabine] | 115% and 117%
71 | Cc1ccc(Nc2nccc(N(C)c3ccc4c(C)n(C)nc4c3)n2)cc1S(N)(=O)=O [Pazopanib] | 96.5%
72 | O=C(CCBr)N1CCN(C(=O)CCBr)CC1 [Pipobroman] | 97%
73 | C[C@]12C=CC(=O)C=C1CC[C@@H]1[C@@H]2[C@@H](O)C[C@@]2(C)[C@H]1CC[C@]2(O)C(=O)CO [Prednisolone] | 111%

same assay, conditions: 100 nM; incubation time: 72 h

Row | Structure (SMILES) | normalised viability
74 | O=C1c2c(O)ccc(O)c2C(=O)c2c(NCCNCCO)ccc(NCCNCCO)c21 [Mitoxantrone] | 73.3%
75 | CNC(=O)c1cc(Oc2ccc(NC(=O)Nc3ccc(Cl)c(C(F)(F)F)c3)cc2)ccn1 [Sorafenib] | 115% and 126%
76 | CCN(CC)CCNC(=O)c1c(C)[nH]c(/C=C2\C(=O)Nc3ccc(F)cc32)c1C [Sunitinib] | 85.4% and 102%
77 | CC[C@@]1(O)C(=O)OCc2c1cc1n(c2=O)Cc2cc3c(CN(C)C)c(O)ccc3nc2-1 [Topotecan] | 82.3%

same assay, conditions: 250 nM; incubation time: 72 h

Row | Structure (SMILES) | normalised viability
78 | c1cc(CN2CCCNCCNCCCNCC2)ccc1CN1CCCNCCNCCCNCC1 [Plerixafor] | 98.7%

same assay, conditions: 1000 nM; incubation time: 72 h

Row | Structure (SMILES) | normalised viability
79 | O=C1c2c(O)ccc(O)c2C(=O)c2c(NCCNCCO)ccc(NCCNCCO)c21 [Mitoxantrone] | 69.8%
